IC50 data for 18 compounds are collected here from US12466834B2, “Imidazodiazepinediones and methods of use thereof” (GFB (ABC), LLC, priority 2018, dated 2025).

pIC50: −log10 of the molar value.

For assay [1], the target named is T1, human TRPC5 (Homo sapiens, UniProt Q9UL62).
T1 construct: expressed in transfected cells
T1 sequence (Q9UL62 1-973): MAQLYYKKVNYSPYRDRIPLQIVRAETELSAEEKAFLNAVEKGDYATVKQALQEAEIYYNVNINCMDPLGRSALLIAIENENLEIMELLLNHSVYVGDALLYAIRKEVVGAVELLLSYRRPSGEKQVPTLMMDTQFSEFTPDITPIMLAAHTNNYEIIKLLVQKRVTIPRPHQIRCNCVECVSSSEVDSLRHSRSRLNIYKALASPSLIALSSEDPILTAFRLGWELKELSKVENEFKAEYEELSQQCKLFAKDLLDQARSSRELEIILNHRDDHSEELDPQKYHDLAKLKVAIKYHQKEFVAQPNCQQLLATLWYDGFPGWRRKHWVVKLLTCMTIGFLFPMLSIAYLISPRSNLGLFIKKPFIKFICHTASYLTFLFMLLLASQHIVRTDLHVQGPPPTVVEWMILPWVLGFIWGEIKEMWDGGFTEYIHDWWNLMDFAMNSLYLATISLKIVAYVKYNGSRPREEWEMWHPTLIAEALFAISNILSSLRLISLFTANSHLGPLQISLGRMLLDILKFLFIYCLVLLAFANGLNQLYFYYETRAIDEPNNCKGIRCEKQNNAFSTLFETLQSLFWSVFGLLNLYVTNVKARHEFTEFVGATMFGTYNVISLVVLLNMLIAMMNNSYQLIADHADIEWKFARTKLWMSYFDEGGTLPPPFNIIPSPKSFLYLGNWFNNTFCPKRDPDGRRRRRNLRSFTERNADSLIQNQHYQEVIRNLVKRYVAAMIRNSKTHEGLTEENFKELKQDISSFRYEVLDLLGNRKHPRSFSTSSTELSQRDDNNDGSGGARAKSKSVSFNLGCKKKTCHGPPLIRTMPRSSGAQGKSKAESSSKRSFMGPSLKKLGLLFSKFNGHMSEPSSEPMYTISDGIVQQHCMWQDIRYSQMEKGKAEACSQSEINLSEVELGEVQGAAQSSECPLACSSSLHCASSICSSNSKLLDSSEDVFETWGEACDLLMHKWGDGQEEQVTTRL
Briefly: Automated patch clamp assay (QPatch), antagonist mode. Format: cell-based. The note with it: HEK-TREx hTRPC5 cells; channel activated with Rosiglitazone 30 μM; normalised to ML-204 block; read-out: Qpatch Potency Range. The protocol:
(§1) ICLN-1633 cells (HEK-TREx hTRPC5) expressing TRPC5 were generated as follows. Commercially available HekTrex-293 cells were seeded at 0.7×10^6 cells/well in a 1×6-well plate 24 hrs prior to transfection using 2 mL cell growth media containing no antibiotics (1× DMEM/high glucose (Hyclone #SH30022.02); 10% fetal bovine serum (Sigma) 2 mM sodium pyruvate, 10 mM HEPES). The human TRPC5 coding sequence (NM_012471 with a silent T478C mutation) was cloned into pcDNA5/TO (Invitrogen; Cat No. V103320) using hygromycin as the resistance gene and the plasmid (SEQ ID NO:1) propagated using T-Rex-293 cells (Invitrogen; Cat No. R71007) following manufacturer's directions. On day 2, 2 μg of plasmid DNA plus 6 μl of Xtreme-GENE HP reagent in Optimem (200 μl total volume) was prepared and incubated for 15 min at room temperature. This plasmid solution was then gently overlayed dropwise onto each well and the plate was gently swirled to mix complex with the media for approximately 30 seconds. Transfected cells were incubated at 37° C. in a 10% CO2 incubator for 24 hrs. The transfected cells were harvested and transferred into 2×150 mm dishes containing cell growth media with no antibiotics at 37° C.
The next day selection was initiated to generate a stable pool by adding cell growth media containing 150 μg/mL Hygromycin and 5 μg/mL Blasticidin and cells were allowed to grow. Media with the selection agent was changed every 1-2 days as needed to remove dead cells. After 7 days, the hygromycin concentration was reduced to 75 μg/mL and cells growth was allowed to continue.
Single clones were selected as follows. The stable pool was diluted to 10 cells/mL and seeded (100 μl/well) into 24×96 well plates (˜1 cell/well) and allowed to grow for 7 days in cell growth media. Fresh media (100 μl) was added and the cells allowed to grow for another 1-2 weeks and then stored frozen or used immediately.
The automated electrophysiological assay was carried out at room temperature. On the day of the experiment, TRPC5 cells were cultured according to our Standard Operating Procedure. Briefly, cells were harvested using TrypLE™ Express, re-suspended in serum free medium, added to the automated platform and used within 0.5-3 hours. Internal and external physiological solutions were freshly prepared prior to the assay. The external solution contained: 145 mM NaCl, 4 mM KCl, 2 mM CaCl2, 1 mM MgCl2, 10 mM HEPES, 10 mM glucose, pH 7.4 with NaOH and 310 mOsm/L. The internal solution contained 120 mM L-aspartic acid, 120 mM CsOH·H2O, 20 mM CsCl, 2 mM MgCl2, 8.8 mM CaCl2, 10 mM EGTA, 10 mM HEPES and 2 mM Na2ATP; pH 7.2 with CsOH and 330 mOsm/L. The free internal Ca^2+ concentration was buffered to 1 μM, according to the WCabuf software. The automated electrophysiological platform QPatch 16 from Sophion (Denmark) was used to carry out the compounds profiling. The series resistance and quality of seals were continuously monitored during the experiments. Data were analyzed using Sophion QPatch assay software 5.6 (Odense). Data were normalized using the maximum activation obtained during the pre-compound agonist application as the top value (1.0) and maximum inhibition induced by ML-204 as the bottom value (0.0). IC50 values were calculated using a least squares regression algorithm (Hill equation).
To monitor the ion currents, a voltage ramp from −100 mV to +100 mV, over 300 ms, was applied every 10 seconds, from a holding potential of −60 mV. Antagonist-mode: After recording for a minimum of 60 seconds control period, the EC60 concentration of the TRPC5 agonist, Rosiglitazone (30 μM), was applied to activate the channel. After reaching steady-state, co-application of increasing concentrations of test compound were applied followed by two applications of Rosiglitazone EC60 and a saturating concentration of the specific blocker ML-204 (100 μM).
(In general: Patch clamp records ionic current or voltage across a cell membrane.)

Assay [2] has as its target T1, human TRPC5. Briefly: FLIPR calcium assay, inhibition of riluzole-activated TRPC5 calcium response. Format: cell-based. The settings on record: ICLN-1633 cells; riluzole 30 μM stimulation; Fluo-4 calcium response; read-out: Inhibitor Potency Range (FLIPR). The method, then: as §1
Compounds were made up to, or supplied as a 10 mM stock solution generally using DMSO as the vehicle. 10-point dose response curves were generated using the Echo-550 acoustic dispenser. Compound source plates were made by serially diluting compound stocks to create 10 mM, 1 mM, and 0.1 mM solutions in DMSO into Echo certified LDV plates. The Echo then serially spotted 100% DMSO stock solutions into source dose response plates to generate a 4-fold dilution scheme. 100% DMSO was added to the spotted dose response plates to bring the final volume to 5 μl. 300 nl of the dose response stock plate was then spotted into pre-incubation and stimulation assay plates. 50 μl of pre-incubation buffer and 100 μl of stimulation buffer was then added to the plates resulting in a final assay test concentration range of 30 μM to 0.0001 μM with a final DMSO concentration of 0.3%.
Human ICLN-1633 cells expressing were plated onto 384 well, black poly-D-lysine-coated microplates and maintained in TRPC5 growth media the day prior to use for experiments. TRPC5 expression was induced by the application of 1 μg/mL tetracycline at the time of plating. Media was removed from the plates and 10 μl of 4 μM of Fluo-4 AM (mixed with equal volume of Pluronic F-127) in Earls's Balanced Salt Solution (EBSS) was added to the cells. Cells were incubated at room temperature, protected from light, for 60-90 minutes. After the incubation period, the dye was removed and replaced with 10 μl of EBSS. Cell, pre-incubation and stimulation plates were loaded onto the FLIPR-II and the assay was initiated. The FLIPR measured a 10 second baseline and then added 10 μl of 2× compounds (or controls). Changes in fluorescence were monitored for an additional 5 minutes. After the 5 minute pre-incubation, 20 μl of 2× riluzole (with 1× compound or controls) was added to the cell plate. The final riluzole stimulation concentration in the assay was 30 μM. After the riluzole addition, changes in fluorescence were monitored for an additional 5 minutes. Reduction in the riluzole-activated calcium response relative to control wells was reported as inhibition. A compound-mediated increase in the riluzole response relative to control riluzole response (no test agent present) with no enhancement of calcium entry during preincubation phase was reported as an agonist response.
Compound inhibition of TRPC5 calcium response was determined as follows. After the riluzole addition, fluorescence was monitored for a 5-minute period. For inhibition, the maximum relative fluorescence response (minus the control response of 1 μM of an internal control compound known to maximally block TRPC5 calcium response, the “REF INHIB” in the formula below) was captured and exported from the FLIPR. […]

In the case of `C[C@H](c1ccc(Cl)cc1)n1c(Oc2cccc(F)c2)nc2c1C(=O)N(CCCO)CC(=O)N2C` (single isomer, unassigned) [Compound 6], the figures for the pIC50 in assay [1] and in assay [2] were below 4.52 and below 5.00, respectively.

Regarding `C[C@@H](c1ccc(Cl)cc1)n1c(Oc2cccc(F)c2)nc2c1C(=O)N(CCCO)CC(=O)N2C` (single isomer, unassigned) [Compound 7], the results for the pIC50 in assay [1] and in assay [2] were 4.52 to 6.00 and below 5.00, respectively.

Turning to `CN1C(=O)CN([C@@H]2CC[C@@H](O)C2)C(=O)c2c1nc(Oc1cccc(OC(F)(F)F)c1)n2Cc1ccc(Cl)cc1` (single isomer, unassigned) [Compound 15], in assay [2], the pIC50 is 6.00 to 9.00.

Consider `CN1C(=O)CN([C@H]2CC[C@H](O)C2)C(=O)c2c1nc(Oc1cccc(OC(F)(F)F)c1)n2Cc1ccc(Cl)cc1` (single isomer, unassigned) [Compound 16], for which, in assay [2], the pIC50 is 5.00 to 6.00.

As for `CN1C(=O)[C@H](CCO)N(C)C(=O)c2c1nc(Oc1cccc(OC(F)(F)F)c1)n2Cc1ccc(Cl)cc1` (single isomer, unassigned) [Compound 17], the pIC50 in assay [1] was below 4.52.

Regarding `CN1C(=O)[C@@H](CCO)N(C)C(=O)c2c1nc(Oc1cccc(OC(F)(F)F)c1)n2Cc1ccc(Cl)cc1` (single isomer, unassigned) [Compound 18], the results for the pIC50 in assay [1] and in assay [2] were 6.00 to 9.00 and below 5.00, respectively.

`O=C1c2c(nc(Oc3cccc(OC(F)(F)F)c3)n2Cc2ccc(Cl)cc2)N2CCC[C@@H]2CN1CCCO` (single isomer, unassigned) [Compound 34]: in assay [2], the pIC50 is 6.00 to 9.00.

Turning to `O=C1c2c(nc(Oc3cccc(OC(F)(F)F)c3)n2Cc2ccc(Cl)cc2)N2CCC[C@H]2CN1CCCO` (single isomer, unassigned) [Compound 35], the pIC50 in assay [2] is 5.00 to 6.00.

Turning to `CN1CCN(CCCO)C(=O)c2c1nc(Oc1cccc(OC(F)(F)F)c1)n2Cc1ccc(Cl)cc1` [Compound 1, 1-[(4-chlorophenyl)methyl]-7-(3-hydroxypropyl)-4-methyl-2-[3-(trifluoromethoxy)phenoxy]-1H,4H,5H,6H,7H,8H-imidazo[4,5-e][1,4]diazepin-8-one], the pIC50 in assay [1] was 4.52 to 6.00.

Take `CCCCn1c(Oc2cccc(OC(F)(F)F)c2)nc2c1C(=O)N(CCCO)CC(=O)N2C` [Compound 3]: the pIC50 in assay [2] was 5.00 to 6.00.

Take `CN1C(=O)CN(CCCO)C(=O)c2c1nc(Oc1cccc(F)c1)n2Cc1ccc(Cl)cc1` [Compound 4]: in assay [2], the pIC50 is 5.00 to 6.00.

`COCCCN1CC(=O)N(C)c2nc(Oc3cccc(OC(F)(F)F)c3)n(Cc3ccc(Cl)cc3)c2C1=O` [Compound 8, 1-[(4-chlorophenyl)methyl]-7-(3-methoxypropyl)-4-methyl-2-[3-(trifluoromethoxy)phenoxy]-1H,4H,5H,6H,7H,8H-imidazo[4,5-e][1,4]diazepine-5,8-dione]: in assay [2], the pIC50 was 5.00 to 6.00.

Regarding `CN1C(=O)CN(CC(O)CO)C(=O)c2c1nc(Oc1cccc(OC(F)(F)F)c1)n2Cc1ccc(Cl)cc1` (stereo not drawn) [Compound 9, 1-[(4-chlorophenyl)methyl]-7-(2,3-dihydroxypropyl)-4-methyl-2-[3-(trifluoromethoxy)phenoxy]-1H,4H,5H,6H,7H,8H-imidazo[4,5-e][1,4]diazepine-5,8-dione], the pIC50 in assay [1] was 4.52 to 6.00.

As to `CN1C(=O)CN(CCO)C(=O)c2c1nc(Oc1cccc(OC(F)(F)F)c1)n2Cc1ccc(Cl)cc1` [Compound 10, 1-[(4-chlorophenyl)methyl]-7-(2-hydroxyethyl)-4-methyl-2-[3-(trifluoromethoxy)phenoxy]-1H,4H,5H,6H,7H,8H-imidazo[4,5-e][1,4]diazepine-5,8-dione], the pIC50 in assay [2] is 5.00 to 6.00.

With `CN1C(=O)CN([C@H]2C[C@H](O)C2)C(=O)c2c1nc(Oc1cccc(OC(F)(F)F)c1)n2Cc1ccc(Cl)cc1` [Compound 13], in assay [1], the pIC50 is 4.52 to 6.00.

Take `O=C1c2c(nc(Oc3cccc(F)c3)n2Cc2ccc(Cl)cc2)N2CCC[C@H]2C(=O)N1CCCO` [Compound 26]: the pIC50 in assay [2] is 6.00 to 9.00.

`CCCCn1c(Oc2cccc(Cl)c2)nc2c1C(=O)N(CCCO)C(=O)[C@@H]1CCCN21` [Compound 32]: the pIC50 in assay [2] was 6.00 to 9.00.

With `O=C1c2c(nc(Oc3cccc(Cl)c3)n2Cc2ccc(Cl)cc2)N2CCC[C@H]2C(=O)N1CCCO` [Compound 33], in assay [2], the pIC50 was 6.00 to 9.00.
